Source: patent publication US11220629B2, “Two-photon fluorescent compounds for specific lipid droplet imaging in live cells and deep tissues at ultralow concentration” (THE HONG KONG UNIVERSITY OF SCIENCE AND TECHNOLOGY, priority 2018, dated 2022)
Where two headings read alike, the source gives them in different places.

How the values were obtained:
HeLa cells = assay: Photostability under continuous confocal laser irradiation; assay type: cell-based; settings: continuous irradiation for 10 min; NAP AIEgens 405 nm, Nile Red 543 nm, power 12%
Method: FIG. 20 is a graph depicting photostability of NAP AIEgens and Nile Red in HeLa cells under continuous irradiation (irradiation conditions: for NAP AIEgens, 405 nm laser, laser power of 12%; for Nile Red, 543 nm laser, laser power of 12%).
Considering the above-mentioned excellent bioimaging characteristics of these NAP AIEgens, further experiments were performed to evaluate their photostability and cytotoxicity. The photostability of NAP AIEgens was evaluated by continuous irradiation with confocal lasers, and data was collected every second. […] Furthermore, standard MTT (3-(4,5-dimethylthiazol-2-yl)-2,5-diphenyl-2H-tetrazolium) assays were performed to evaluate the cytotoxicity of NAP AIEgens in live cells.

LDs in HeLa cells [1] = assay: Co-staining imaging with LDs dye Nile Red (CLSM); assay type: cell-based; settings: 100 nM
Method: (§1) To confirm the intracellular location of NAP AIEgens in live cells, co-staining imaging experiments were performed. […] It is believed that positive-charged dyes like NAP-Py^+ can stain mitochondria due to the high negative membrane potential of mitochondria. To determine why other NAP AIEgens without positive charge locate in LDs, additional investigation was conducted.

[2] = Absorption and fluorescence (photophysical properties) in solvent and solid state; assay type: physicochemical; settings: for Φ (fluorescence quantum yield): integrating sphere; for Solvatochromism: toluene, diethyl ether, THF, acetone, DMSO
Method: ^1H and ^13C NMR spectra were measured on Bruker ARX 400 NMR spectrometers using CDCl3 as the deuterated solvent. High-resolution mass spectra (HRMS) were recorded on a Finnegan MAT TSQ 7000 Mass Spectrometer System operating in a MALDI-TOF mode. UV absorption spectra were taken on a Milton Ray Spectronic 3000 array spectrophotometer. Steady-state fluorescence spectra were recorded on a Perkin Elmer LS 55 spectrometer. Fluorescence images were collected on Olympus BX 41 fluorescence microscope. Laser confocal scanning microscope images were collected on Zeiss laser scanning confocal microscope (LSM7 DUO) and analyzed using ZEN 2009 software (Carl Zeiss). Two-photon fluorescence imaging was carried out on Olympus FV 300 laser confocal microscope. In two-photon experiments, the excitation wavelengths were 860 nm from a Ti:sapphire femtosecond laser source (coherent chamelon ultra) and the incident power on samples was modified by means of an attenuator and examined with a power monitor (Coherent). A multiphoton emission filter (FF01-750; Semrock) was used to block the IR laser.
The absorption and fluorescence (FL) data of the NAP AIEgens were investigated, and corresponding spectra are shown in FIGS. 5A-5H, 6A-6E, and FIG. 7.
This phenomenon is probably due to the changes in morphology and size of the aggregates formed in the water-THF mixture with high water fractions. […] It should be noted that the FL of NAP AIEgens in high water fraction (fw>90%) increased only several-fold compared with that in THF or CH3CN (FIG. 5G), probably because of formation of loosely packed aggregates. […] The FL spectra of NAP AIEgens were further measured in different polar solvents (FIGS. 6A-6E). […] As for NAP-CF3, the reason for blue-shifted FL in the solid state was likely its twisted structure (FIG. 2E), resulting in only […] π-π interaction rather than J-aggregation (FIG. 2B). […] The FL quantum yields (QYs, Table 1) of NAP AIEgens were measured by using an integrating sphere. […] It should be pointed out that the solid FL QY of NAP-Py^+ was low, likely due to a narrow energy gap and enhanced nonradiative transitions in NIR fluorescent dyes (FIG. 7). Furthermore, longer FL lifetimes of NAP AIEgens in the solid state than those in solvents also verified that restriction of intramolecular motion (RIM) can prohibit energy dissipation via non-radiative channels and enhance the FL of NAP AIEgens (Table 1).

LDs in HeLa cells [3] = assay: One-photon LDs imaging at 50 nM; assay type: cell-based; settings: 405 nm laser intensity 12%
Method: One-photon imaging experiments in HeLa cells stained with 50 nM of NAP-Ph, NAP-Br, NAP-CF3, and NAP-Py were performed, and Nile Red was used as comparison. […] As far as we know, this is the lowest concentration used for LDs imaging.

[4] = test system: LDs in live mice liver tissue; assay: Ex vivo two-photon imaging of live mice liver tissue; settings: 1 μM, 1 h incubation, λex 860 nm
Method: TP fluorescence imaging outperforms imaging in one-photon mode as a result of high penetration in tissues and low background fluorescence because of near-infrared light excitation and low excitation power. […] After incubation with NAP-CF3 (1 μM) for 1 h, bright spherical spots with TP fluorescence of NAP-CF3 were observed (FIG. 18). For the live mice liver tissue without NAP-CF3, however, only low background fluorescence was obtained. […] To investigate whether NAP-CF3 could show LDs-specific staining in deep live mice liver tissue, TP fluorescence images along the Z-axis were captured. As shown in FIGS. 19A-19F, the fluorescent signal of the spherical spot could be clearly detected at different Z-axis depths even up to 70 μm. […] These excellent TP tissue imaging properties render NAP-CF3 a tremendous tool to visualize LDs-associated biomedical application in live tissues.

[5] = Two-photon absorption (TPA) cross section of aggregate suspensions, fluorescein as standard; assay type: physicochemical; settings: aggregate suspension in H2O containing 1% CH3CN
Method: With fluorescein as the standard, the TPA cross sections (δ) of NAP AIEgens at different wavelengths were also measured (FIG. 8F). […] To further acquire the TPEF, NAP AIEgens in solid states were directly excited at 800 nm (intensity of about 0.35 mW).

[6] = test system: mitochondria in HeLa cells; assay: Co-staining imaging with mitochondria dye MitoTracker Deep Red FM; assay type: cell-based; settings: NAP-Py^+ 1 μM, MTDR 100 nM
Method: as §1

[7] = THF or CH3CN (CH3CN for NAP-Py^+)
[8] = THF or CH3CN (CH3CN for NAP-Py^+), listed as NAP-Py^+

| Structure (SMILES) | Fluorescence intensity change under irradiation (HeLa cells) | Pearson's coefficient with Nile Red (LDs in HeLa cells [1]) | αAIE = Φsolid/Φsolvent [2] | λem max ([2]; Solid) | τ (fluorescence lifetime) ([2]; Solid) | Φ (fluorescence quantum yield) ([2]; Solid) | Stokes shift [2, 7] | λabs max [2, 7] | λem max [2, 7] | τ (fluorescence lifetime) [2, 7] | Φ (fluorescence quantum yield) [2, 7] | Solvatochromism [2] | LDs staining (LDs in HeLa cells [3]) | also measured |
| --- | --- | --- | --- | --- | --- | --- | --- | --- | --- | --- | --- | --- | --- | --- |
| COc1c(/C=C(\C#N)c2ccc(Br)cc2)ccc2cc(N(C)C)ccc12 [NAP-Br] | dropped to some extent | 0.83 | 9.00 | 597 nm | 4.43 ns | 0.126 | 116 nm | 409 nm | 525 nm | <0.60 ns | 0.014 | positive solvatochromism | clear fluorescence |  |
| COc1c(/C=C(\C#N)c2cc(C(F)(F)F)cc(C(F)(F)F)c2)ccc2cc(N(C)C)ccc12 [NAP-CF3] |  | 0.85 | 18.25 | 555 nm | 6.29 ns | 0.292 | 135 nm | 425 nm | 560 nm | <0.67 ns | 0.016 | positive solvatochromism | clear fluorescence | LDs staining in live mice liver tissue [4]: excellent LDs staining property; Z-axis depth at which fluorescent signal is detected [4]: up to 70 μm |
| COc1c(/C=C(\C#N)c2ccc(-c3ccccc3)cc2)ccc2cc(N(C)C)ccc12 [NAP-Ph] | dropped to some extent | 0.90 | 14.89 | 566 nm | 1.42 ns | 0.268 | 114 nm | 409 nm | 523 nm | <0.34 ns | 0.018 | positive solvatochromism | clear fluorescence | λem max ([2]; THF/water mixture, water fraction 90%, aggregates): 557 nm |
| COc1c(/C=C(\C#N)c2ccc(-c3ccncc3)cc2)ccc2cc(N(C)C)ccc12 [NAP-Py] | dropped to some extent | 0.88 | 14.47 | 619 nm | 1.39 ns | 0.217 | 128 nm | 413 nm | 541 nm | <0.67 ns | 0.015 | positive solvatochromism | clear fluorescence | TPA cross section (δ) value [5]: very large; Φ (fluorescence quantum yield) ([2]; Solid, listed as NAP-Py^+): 0.048; λem max ([2]; Solid, listed as NAP-Py^+): 676 nm; τ (fluorescence lifetime) ([2]; Solid, listed as NAP-Py^+): 1.32 ns; Φ (fluorescence quantum yield) [2, 8]: 0.008; Stokes shift [2, 8]: 85 nm; λabs max [2, 8]: 455 nm; λem max [2, 8]: 540 nm; τ (fluorescence lifetime) [2, 8]: <0.58 ns; αAIE = Φsolid/Φsolvent ([2]; listed as NAP-Py^+): 6.00; Solvatochromism ([2]; listed as NAP-Py^+): negative solvatochromism; Pearson's coefficient with MitoTracker Deep Red FM [6]: 0.89 |
| CCN(CC)c1ccc2nc3c4ccccc4c(=O)cc-3oc2c1 [Nile Red, reference compound] | drastically decreased |  |  |  |  |  |  |  |  |  |  |  | non-specific staining in cytoplasm |  |
